In patent US7087661B1, “Safe and effective biofilm inhibitory compounds and health-related uses thereof” (Cernofina, LLC, priority 1998, dated 2006):
Where “and” joins values, the source holds several entries; their conditions need not be identical. Identical values can stand only once. Counter-ions that a name gives are not always drawn.

Tests used:
[1] = test system: sea urchin egg fertilization (sperm-egg fusion); assay: Sea urchin fertilization assays; assay type: cell-based
Protocol: A simple sea urchin assay was used to detect and quantitate the ability of sulfate esters to block sperm-egg fusion. Sea urchin sperm was added to freshly collected eggs in the presence and absence of increasing amounts of the sulfate ester zosteric acid, and the eggs were subsequently scored for successful fertilization. Fertilization assays. Healthy sea urchins were induced to spawn by injection with 0.5 M KCL solution. Freshly collected eggs were gently washed and resuspended in filtered sea water (FSW, pH 8.2) and aliquotted into separate tubes for fertilization assays. Zosteric acid was added to each tube from a concentrated stock dissolved in FSW (pH 8.2), along with additional FSW to ensure a constant volume in each tube. Equal amounts of sperm were added to each tube and percent fertilization was determined by direct microscopic counting. Eggs with elevated fertilization membranes were scored as fertilized. Assays were performed at sperm-limiting concentrations that allowed 95–99% fertilization in the absence of zosteric acid.

[2] = test system: polyclonal antibodies specific for zosteric acid; assay: Preliminary testing of anti-zosteric acid polyclonal antibodies for cross reactivity; assay type: binding
Text: To investigate the mechanism behind the AF activity of sulfate esters, polyclonal antibodies specific for the sulfate ester zosteric acid were generated (BAbCo, Berkeley, Calif.). […] These antibodies were then used to investigate whether the sulfate ester AF agent zosteric acid directly binds fouling organisms.

Oceanosprillum = Oceanosprillum adhesion test on glass slides; assay type: cell-based; settings: 5 mM in artificial seawater, 6-hour period
Protocol: Oceanosprillum adhesion test Each test consisted of a control set (with no sulfate esters) and sample sets containing the test molecules. The first test group consisted of a control sample set, a zosteric acid (5 mM) sample set, and an octyl sulfate (5 mM) sample set. The second test group consisted of a control sample set, a zosteric acid (5 mM) sample set, and a methyl sulfate (5 mM) sample set. Sample sets consisted of five 50 mL sterile centrifuge tubes, with each tube containing a glass microscope slide, 50 ml of artificial seawater (ASTM—American Society for testing and materials) with the dissolved sulfate ester, inoculated with an Oceanosprillum culture at 1×10^6 cells/mL. Sample sets were incubated at 23 C, with shaking so that the surface of the slides were horizontal. Over a 6-hour period, individual tubes were taken from the sample sets and tested for microbial adhesion.
(§1) Determination of bacterial adhesion. Samples were removed from the shaker and 1 mL of 50× acridine orange stain (0.5 g/L acridine powder in water) was added to the tube. The stain was allowed to react for 4 minutes. The slides were then removed and fitted with a long cover slip and immediately counted with an epifluorescent microscope fitted with a 100× (oil) objective lens on the under side of the slide. The size of the counting field was 10×10 μm. A total of 20 counts per slide were performed and averaged to yield the number of cells per μm^2, which was in turn converted to cells per mm^2. Error was assigned at 10% which is the standard accepted error for direct counting of bacterial cells.

Alteromonas atlantica = Alteromonas atlantica adhesion tests on glass slides; assay type: cell-based; settings: for Alteromonas atlantica adhesion relative to controls: 5 mM dissolved in modified ASTM seawater
Protocol: Alteromonas atlantica adhesion tests. The tests consisted of a control sample set, a zosteric acid (5 mM) sample set, an octyl sulfate (5 mM) sample set, and a methyl sulfate (5 mM) set. A sample set consisted of six 60 mL sterile centrifuge tubes. Each tube contained a glass microscope slide and 50 mL of modified ASTM seawater (American Society for Testing and Materials (1986) D1141-86, ASTM, Philadelphia, Pa.) with dissolved agent, inoculated with Alteromonas atlantica culture to an initial cell density of 1×10^6 cells/mL. The modified seawater consisted of normal ASTM seawater ingredients, however the carbon source glycerol, was only 1000th the normal strength, […], and was void of an amino acid source (casamino acids), in order to allow enough carbon for attachment, but not for significant cell growth.
as §1

equine erythrocytes = assay: Red blood cell agglutination assays; assay type: cell-based; settings: for concentrations producing erythrocyte agglutination: washed equine erythrocytes, 0.005 to 5.0 mg/mL tested
Protocol: Red Blood Cell agglutination assays. Washed equine erythrocytes suspended in 1 mg/mL sodium citrate were placed in microtiter plates designed with wells containing hemispherical bottoms. Negative controls (no zosteric acid) were diluted in isotonic saline solution. Zosteric acid treated cells were diluted with saline containing zosteric acid at eight concentrations ranging from 0.005 to 5.0 mg/mL. Positive controls were exposed to the same range of high molecular weight heparin sulfate concentrations.

[3] = test system: clot formation (prothrombin clotting time); assay: Prothrombin clotting time assays; assay type: biochemical; settings: human serum
Protocol: Clotting assays. Clotting time assays were performed using commercial kits (Sigma Chemical Co.) for prothrombin clotting time. Serum was harvested from 30 mL of whole human blood obtained by venous puncture using centrifugation to remove blood cells. Zosteric acid and high MW heparin were added to separate aliquots of the serum, producing concentrations from 0 to 5.0 mg/mL. Clotting times were determined for each concentration in duplicate according to the protocols provided with the kit.

[4] = test system: natural marine algal biofilms; assay: Marine algal biofilm development on RTV-11 silicone coating in running raw seawater; assay type: cell-based, marine algae; settings: 25% (wt/wt) in RTV-11 silicone coated on glass slides; 26 days in running seawater
Text: A 30% (w/v) solution of octyl sulfate in water (Stepan Chemical Co.) was evaporated to dryness under a stream of room temperature air, to recover pure octyl sulfate (FIG. 1). The dry octyl sulfate was incorporated into RTV-11 silicone polymer at a loading of 25% (wt/wt) (RTV-11 silicone, catalyst and primer obtained from General Electric). The mixture was applied to three glass slides previously primed with silicone primer, and allowed to cure to dryness. Three primed glass slides coated with pure RTV-11 served as agent-free controls. After complete drying, the absorption properties of each slide were measured using a Shimadzu UV-2101 spectrophotometer fitted with an integrating sphere. Slides were then placed in a tank of running raw seawater and allowed to incubate outdoors in natural sunlight for 26 days. Water temperature was nominally 15 C. Spectrophotometric determination of biofilm accumulation was measured on each slide periodically. Relative algal biomass was calculated as the ratio of absorption at 680 nm, contributed by chlorophyll a, to that at 750 nm, a wavelength not absorbed by chlorophyll, to correct for differences in turbidity and scattering properties of the different slides.

Aureobasidium pullulans = assay: Fungal attachment and growth assay on glass slides; assay type: cell-based, Aureobasidium pullulans (ATCC 34261)
Protocol: Aureobasidium pullulans (ATCC 34261) was grown on potato-dextrose agar and harvested according to ASTM G-21-90 protocols (American Society for Testing and Materials (1986) […]-86, ASTM, Philadelphia, Pa.). The resulting spore suspension was used to inoculate liquid culture tubes containing 35 mL of growth medium (nutrient salts with 5 mM sucrose) and 15 mM zosteric acid. Zosteric acid-free medium was prepared as a control. A sterile microscope slide was added to each tube, the tubes were sealed and placed on a rotary shaker table at room temperature. One tube was harvested each day by removing the slide and counting the number of attached spores by direct microscopic counts, as described above.

[5] = test system: Shewanella putrefaciens cell surface; assay: Cell surface binding assay (immuno-gold staining, electron microscopy); settings: cultures grown with 16 mM zosteric acid
Protocol: The marine bacterium Shewanella putrefaciens were grown in cultures containing zosteric acid and were subsequently examined for bound zosteric acid using immuno-gold staining with the antibody described above.
Cell Surface Binding Assays. The marine bacterium Shewanella putrefaciens was grown in marine broth in the presence of 16 mM zosteric acid. Dense log phase cells were harvest after 5 hours growth, and preserved in 0.5× Kamofsky's fixative (2% formaldehyde, 2.5% gluturaldehyde, 0.05 M sodium cacodylate, 0.25 M sucrose, pH 7.4) for 2 hours, and then transferred to a cacodylate buffer (0.05 M sodium cacodylate, pH 7.4) for storage. Cells were prepared for electron microscopic examination using immuno-gold staining techniques (Harlow, E. and Laine, D., Antibodies, A Laboratory Manual, Cold Spring Harbor Laboratory, 359–421; Roth et al., J. Histochem. Cytochem. 26: 1074–1081 (1978)). The primary antibody used in this study was an anti-zosteric acid polyclonal antibody (BAbCo, Richmond, Calif.).

Shewanella putrefaciens = assay: Bacterial agglutination assays (growth and agglutination in liquid culture); assay type: cell-based
Protocol: To further investigate the role of sulfate esters in agglutination, the ability of sulfate esters to facilitate the agglutination of bacterial cells was investigated. Log-phase cultures grown in the presence of zosteric acid were monitored spectrophotometrically (OD600) for growth, and for agglutination in the presence of increasing amounts of zosteric acid. Bacterial agglutination assays. Log-phase cultures of Shewanella putrefaciens were grown in complete seawater medium containing zosteric acid at a range of concentrations up to 20 mM. Cultures were counted for viable colony forming units at eight hours.

[6] = test system: agglutination of sea urchin eggs by purified bindin; assay: Sea urchin egg agglutination assays with purified bindin; assay type: cell-based
Protocol: Sea urchin egg agglutination assays. Freshly spawned eggs were suspended in acidic seawater (pH 5) for 5 minutes to remove the outer jelly coat, and then washed 5 times in normal FSW (pH 8.2). Eggs were then transferred into plastic petri dished containing a range of zosteric acid concentrations and incubated for 15 minutes. Purified bindin (D. Epel, Stanford University) was added to the eggs at concentrations ranging from 1.2 to 12 μg/mL. The mixtures were gently agitated on a rotary shaker for 5 minutes and visually examined for agglutination. Bovine serum albumen (BSA) was used in separate assays to control for nonspecific agglutination of the dejellied eggs.

O=C(O)/C=C/c1ccc(O)cc1 [coumaric acid, reference compound]
effect on egg fertilization ([1]; 1 mg/mL): no effect

O=C(O)C=Cc1ccccc1 [cinnamic acid]
cross reactivity with antibodies specific for zosteric acid [2]: no cross reactivity

CCC(C)(C)c1ccc(OS(=O)(=O)Cl)cc1 [4-PPCS, 4 t-Pentyl Phenyl Chlorosulfate]
impact on sperm motility ([1]; contact with 4-PPCS): no adverse impacts | inhibition when more sperm were added to the medium ([1]; exceeding the binding capacity of 4-PPCS in solution): could be washed out | effectiveness in blocking sea urchin fertilization ([1]; in the range of 1–10 mM): ~100%

COc1cc(/C=C/C(=O)O)ccc1O [ferulic acid]
cross reactivity with antibodies specific for zosteric acid [2]: no cross reactivity

COS(=O)(=O)O [methyl sulfate]
Oceanosprillum adhesion (bacterial attachment) relative to control (Oceanosprillum): roughly a two fold reduction | Alteromonas atlantica adhesion (Alteromonas atlantica; 5 mM, constant after 120 minutes, controls greater than 700,000): 150,000 cells/mm^2

heparin [reference compound]
concentrations producing erythrocyte agglutination (equine erythrocytes): greater than 0.75 mg/mL | concentrations effective at preventing clot formation [3]: below 0.1 mg/ml | reduction of fertilization ([1]; 1 mg/mL): approximately 50%

CCCCCCCCOS(=O)(=O)[O-].[Na+] [octyl sulfate]
algal biofilm development relative to controls lacking octyl sulfate [4]: five fold less | Oceanosprillum adhesion (bacterial attachment) relative to control (Oceanosprillum): to an even greater extent than zosteric acid | Alteromonas atlantica adhesion relative to controls (Alteromonas atlantica): slightly higher inhibitory activity than zosteric acid

O=C(O)/C=C/c1ccc(OS(=O)(=O)O)cc1 [zosteric acid]
Oceanosprillum adhesion (bacterial attachment) relative to control (Oceanosprillum): roughly a two fold reduction | Alteromonas atlantica adhesion relative to controls (Alteromonas atlantica): significant reduction | filamentous growth or mycelial development of colonies (Aureobasidium pullulans; 15 mM in liquid culture): no evidence of filamentous growth or mycelial development | germinated fungal colonies on slides (Aureobasidium pullulans; 15 mM, after 5 days incubation, control more than 600): less than 20 germinated fungal colonies/mm^2 | growth of fungal spores in the medium (Aureobasidium pullulans; 15 mM, clouding of tubes after Day 1): observed to grow | zosteric acid bound to bacterial cell surface (immuno-gold staining) [5]: bound to the surface of the bacteria | counts of viable colony forming units (Shewanella putrefaciens; at eight hours, among the different cultures): no difference in cell density | agglutination of S. putrefaciens (Shewanella putrefaciens; concentration dependent, up to 20 mM): significant agglutination | growth of S. putrefaciens in liquid culture (Shewanella putrefaciens; concentrations up to 16 mM): did not inhibit the growth | reactivity with cell surface glycoproteins and polysaccharides relative to high molecular weight heparin (equine erythrocytes; from erythrocyte agglutination concentrations): eight times more reactive | concentrations producing erythrocyte agglutination (equine erythrocytes): ≥ 0.175 mg/mL | concentrations effective at preventing clot formation [3]: exceeding 10 mg/ml | concentration range effective in blocking sea urchin fertilization [1]: 1 to 10 mM | fertilization remaining ([1]; 1 mg/mL): 21% | effectiveness at inhibiting fertilization relative to heparin ([1]; equal mass concentrations, 1 mg/mL): at least twice as effective | concentrations that completely blocked fertilization ([1]; sea urchin eggs, sperm-limiting concentrations): higher than 0.5 mg/mL and > 1.5 mM | effect on sperm viability or motility ([1]; sea urchin sperm exposed to zosteric acid): no detected effect | reversibility of fertilization inhibition ([1]; unfertilized eggs of highest treatment washed and re-exposed to fresh sperm): reversible | Agglutination ([6]; [ZA] 0.015 mg mL^−1): Yes | Agglutination ([6]; [ZA] 0.03 mg mL^−1): Yes | Agglutination ([6]; [ZA] 0.075 mg mL^−1): Yes | Agglutination ([6]; [ZA] 0.15 mg mL^−1): Yes | Agglutination ([6]; [ZA] 0.30 mg mL^−1): Yes | Agglutination ([6]; [ZA] 0.75 mg mL^−1): Yes | Agglutination ([6]; [ZA] 1.5 mg mL^−1): No | Agglutination ([6]; [ZA] 3 mg mL^−1): No
